The values below come from patent US10420718B2, “Effervescent compositions containing co-crystals of the acid part” (University of Bradford, priority 2014, dated 2019).

A short description of data set [1]: Stability of co-crystals stored at 98% relative humidity, checked by XRD. It counts as physicochemical. Conditions: 98% RH. The method, then:
The co-crystals were stored at 98% relative humidity and the stability was evaluated after 24 hours using powder X-ray diffraction. […] This stability of the co-crystal in the presence of high amounts of atmospheric moisture is responsible for maintenance of the effervescent action. The stability of the co-crystals to moisture was investigated by storing the co-crystals at 98% relative humidity and the following results were observed. The co-crystal samples were analysed with XRD to check whether the co-crystal retained its structure or became dissociated or degraded over time on exposure to the atmosphere. Stability of Co-Crystals at 98% RH

The nature of data set [2]: Dynamic vapour sorption (DVS) study. It counts as physicochemical. As to conditions: for Moisture sorption (weight gain) at 90% relative humidity: DVS, 90% RH. On the procedure: UK. The sample weights were taken in the range of 30-50 mg and below experimental parameters were kept constant for all samples.

On to `NC(=O)c1cccnc1.NC(=O)c1cccnc1.O=C(O)CC(O)(CC(=O)O)C(=O)O` [Citric acid-nicotinamide, 1:2, citric acid-nicotinamide 1:2 co-crystal], for which the “XRD results (co-crystal stability)” value in data set [1] (Day 14) and in data set [1] (Day 18) was “Stable” each time. The “Behaviour in DVS study (in words)” value in data set [2] (DVS 0-90% RH, 25 C) is given as “non-hygroscopic”. In data set [2] (25 C), the “Moisture sorption (weight gain) at 90% relative humidity” value turned out to be 0.23%.
As for `NC(=O)c1cccnc1.NC(=O)c1cccnc1.O=C(O)CC(O)(CC(=O)O)C(=O)O` [Citric acid:nicotinamide, 1:2 co-crystal], the “Change In Mass (%)” value was found to be 0.0002% in data set [2] (Target Relative Humidity 0.0%); 0.0044% in data set [2] (Target Relative Humidity 10.0%); 0.0070% in data set [2] (Target Relative Humidity 20.0%); 0.0108% in data set [2] (Target Relative Humidity 30.0%); 0.0145% in data set [2] (Target Relative Humidity 40.0%); 0.0203% in data set [2] (Target Relative Humidity 50.0%). The “Change In Mass (%)” value worked out at 0.0318% in data set [2] (Target Relative Humidity 60.0%), 0.0561% in data set [2] (Target Relative Humidity 70.0%), 0.0976% in data set [2] (Target Relative Humidity 80.0%) and 0.2319% in data set [2] (Target Relative Humidity 90.0%).
On to `O=C(O)CC(O)(CC(=O)O)C(=O)O` [citric acid], for which, in data set [2] (DVS 0-90% RH, 25 C), the “Behaviour in DVS study (in words)” value was “undergoes liquefaction”. In addition, the “Weight gain due to moisture sorption (total)” value in data set [2] (DVS 0-90% RH, 25 C) is 31%. Also, the “Change In Mass (%)” value in data set [2] (Target Relative Humidity 0.0%), in data set [2] (Target Relative Humidity 10.0%), in data set [2] (Target Relative Humidity 20.0%), in data set [2] (Target Relative Humidity 30.0%), in data set [2] (Target Relative Humidity 40.0%) and in data set [2] (Target Relative Humidity 50.0%) was 0.00% in each case. Besides, the “Change In Mass (%)” value in data set [2] (Target Relative Humidity 60.0%) was determined as 0.01%; in data set [2] (Target Relative Humidity 70.0%), 0.02%; in data set [2] (Target Relative Humidity 80.0%), 4.65%; in data set [2] (Target Relative Humidity 90.0%), 31.21%.
`O=C([O-])O.[Na+]` [sodium bicarbonate]: the “Moisture sorption (weight gain) at 90% relative humidity” value in data set [2] (25 C) is reported as 0.32%. Also, the “Change In Mass (%)” value in data set [2] (Target Relative Humidity 0.0%) is reported as −0.0001%; in data set [2] (Target Relative Humidity 10.0%), 0.0027%; in data set [2] (Target Relative Humidity 20.0%), 0.0042%; in data set [2] (Target Relative Humidity 30.0%), 0.0056%; in data set [2] (Target Relative Humidity 40.0%), 0.0074%; in data set [2] (Target Relative Humidity 50.0%), 0.0103%. The “Change In Mass (%)” value was determined as 0.0143% in data set [2] (Target Relative Humidity 60.0%), 0.0240% in data set [2] (Target Relative Humidity 70.0%), 0.0746% in data set [2] (Target Relative Humidity 80.0%) and 0.3236% in data set [2] (Target Relative Humidity 90.0%).
